Source: US5552156A, “Liposomal and micellular stabilization of camptothecin drugs” (Ohio State University, priority 1995, dated 1996)
Entries after “also recorded” stand apart in the source; their conditions may differ.

Tests used:
[1] = HPLC assay of lactone ring hydrolysis, free in PBS or associated with liposomes or micelles; format: physicochemical; settings: for duration of stability when bound to liposomes / lactone hydrolysis when associated with liposomes: DMPC and DMPG liposomes; for duration of stability when bound to liposomes: 0.29M lipid; for C/L drug DMPC Lip. / t1/2 drug DMPC Lip.: DMPC liposomes; for C/L drug DMPG Lip. / t1/2 drug DMPG Lip.: DMPG liposomes; for effect of liposome lysis by sonication: 5 minutes sonication; for biologically active (lactone) form present after 48 hours: associated with DMPC or DMPG liposomes; for carboxylate/lactone ratio (C/L) free drug: final equilibrium; for t1/2 free drug: lactone hydrolysis
Procedure: A high performance liquid chromatography assay was used to determine the rate of hydrolysis of camptothecin and topotecan free in aqueous solution and to compare such rates with the rate of hydrolysis for the same drugs when bound to the DMPG and DMPC liposome membranes. The assay was conducted under near physiological conditions; the pH was 7.4, the temperature was 37° C. and the ionic strength was physiological. A Spectroflow model 980 fluorescence detector coupled to an HP 3392A integrator which acquired and processed the chromatograms, was used. For camptothecin, an Ultrasphere ODS C-18 250 mm long column was used. The mobile phase consisted of 32% acetonitrile, 67% 0.1M acetate buffer, pH 5.5, and 1% 01.M sodium dodecylsulfate at a flow rate of 1 mL/min. The detector was set to 370 nm excitation wavelength and a 418 nm long pass emission filter. A 1 μM solution of camptothecin in PBS was prepared and incubated at 37° C. Immediately after mixing the drug stock solution with PBS and at intervals of 5 min thereafter, 50 μL aliquots were taken out and mixed with 150 μL methanolic internal standard, 9-toluoylamidocamptothecin and either analyzed immediately or kept cold under dry ice. 150 μL of this mixture was diluted with 125 μL water and 200 μL was injected. The ratio of the peak areas corresponding to the intact lactone form of the camptothecin drug and the internal standard at a particular time was normalized to that at the time of mixing and was considered as the concentration of the intact lactone form.
For topotecan the excitation wavelength was 362 nm and the emission was observed through a 470 long wave pass filter. The stationary phase was Waters Nova-Pak C-18 150mm long column. The mobile phase consisted of 500 mL 0.1M KH2 PO4, 550 mL acetonitrile, 4.2 mL triethylamine (distilled over molecular sieves), 4.44 g sodium dioctylsulfosuccinate (DOSS), and 970 ml water. The pH was adjusted to 6.0 with H3 PO4. Internal standard solution contained 50×10^-9 g acridine from Eastman and 20×10^-3 M DOSS in methanol and was always kept cold at ≤-20° C. Next 150 μL or cold internal standard solution was mixed with 50 μL aliquot containing topotecan, centrifuged for 1 minute and the supernatant was either analyzed immediately or stored at -20° C. for analysis at a later time, within 2 hours. Samples were monitored at time points from 0 minutes, that is, immediately following dissolution, up to 72 hours.
The kinetics of lactone ring hydrolysis for free camptothecin, CMC and topotecan are shown in of FIGS. 7a, 7b and 7c. Analysis of the decay profile for camptothecin, CMC and topotecan free in PBS was accomplished using a nonlinear least squares program.

[2] = Relative lipophilicity of camptothecin drugs; settings: among drugs of Table V
[3] = HPLC assay of lactone ring hydrolysis, free in PBS or associated with liposomes or micelles; format: physicochemical
[4] = Excited-state lifetime of camptothecin; format: physicochemical; settings: for excited state-lifetime: 37° C.
Procedure: The excited state-lifetime values of camptothecin free in solution was measured in PBS, glycerol, and methanol at 37° C. The lifetime values are 4.7 ns, 3.8 ns, and 3.5 ns, respectively. The average excited state-lifetime value of camptothecin when bound to DMPC liposome membrane is 3.7 ns. The measurements indicate that the excited-state lifetime of camptothecin is relatively insensitive to changes in solvent environment or to changes due to relocation of camptothecin from an aqueous environment to the lipid liposome membrane.
The picosecond fluorescence experiment were carried out with a Piridine I cavity dumped dye laser and frequency doubled light […]. The lifetime and correlation time were measured using frequency domain fluorometer operating up 10 GHz (Laczko et al., Rev. Sci. Instrum. 61: 2331, (1990)). The modulated exited light was obtained from the harmonic content of a laser pulse train with a repetition rate of 3.81 MHz and a pulse width of 5 ps. A mode locked […] Antares laser was used to pump the dye laser. The emission was observed through the cut of the filter […] by microchannel photomultiplier. The cross-correlation detection was done outside the photomultiplier tube, according to Laczko et al., Rev, Sci. Instrum. 61: 2331 (1990).

CCC1(O)C(=O)OCc2c1cc1n(c2=O)Cc2cc3c(Cl)c4c(cc3nc2-1)OCO4 (stereo not drawn) [9-chloro-10,11-methylenedioxycamptothecin]
duration of stability when bound to liposomes [1]: at least 48 hours
C/L drug DMPC Lip. ([1]; pH 7.4, 37° C.): ~ 0
t1/2 drug DMPC Lip. ([1]; pH 7.4, 37° C.): > 72 h
C/L drug DMPG Lip. ([1]; pH 7.4, 37° C.): ~ 0
t1/2 drug DMPG Lip. ([1]; pH 7.4, 37° C.): > 72 h
effect of liposome lysis by sonication ([1]; DSPC MLVs): releases 9-chloro-10,11-methylenedioxycamptothecin which is then hydrolysed
effect of liposome lysis by sonication ([1]; DSPC MLVs, listed as CMC): at least partially released and hydrolysed
lactone ring not hydrolysed in pH 5 DSPC liposomes ([1]; DSPC MLVs, internal pH 5): More than 80%
biologically active (lactone) form present after 48 hours [1]: more than 97%
carboxylate/lactone ratio (C/L) free drug ([1]; free in PBS, pH 7.4, 37° C.): 6.4
half-life (t1/2) of free drug in PBS ([1]; free in PBS, pH 7.4, 37° C.): approximately 21 min
t1/2 free drug ([1]; free in PBS, pH 7.4, 37° C.): 21.3 min
relative lipophilicity [2]: most lipophilic

CCC1(O)C(=O)OCc2c1cc1n(c2=O)Cc2cc3cc4c(cc3nc2-1)OCO4 (stereo not drawn) [10,11-methylenedioxycamptothecin]
lactone hydrolysis when associated with liposomes [1]: little hydrolysis even at 48 hours
C/L drug DMPC Lip. ([1]; pH 7.4, 37° C.): ~ 0
t1/2 drug DMPC Lip. ([1]; pH 7.4, 37° C.): > 72 h
C/L drug DMPG Lip. ([1]; pH 7.4, 37° C.): ~ 0
t1/2 drug DMPG Lip. ([1]; pH 7.4, 37° C.): > 72 h
biologically active (lactone) form present after 48 hours [1]: more than 97%
carboxylate/lactone ratio (C/L) free drug ([1]; free in PBS, pH 7.4, 37° C.): 3.3
half-life (t1/2) of free drug in PBS ([1]; free in PBS, pH 7.4, 37° C.): 28.7 min
t1/2 free drug ([1]; free in PBS, pH 7.4, 37° C.): 28.7 min
degraded at 1 h ([1]; pH 7.4, free in PBS, less than 1 hour, read-out: drug hydrolyzed in less than 1 hour): > 70%
drug stabilized at 5 hours ([1]; sorbitan mono-oleate micelles, 5 hours): 50%
drug not hydrolysed at about 2.5 hours ([3]; SDS micelles, about 2.5 hours): about 75%
t1/2, octylphenolpolyoxyethylene micelles ([3]; octylphenolpolyoxyethylene micelles, PBS pH 7.4): 90 min

CCC1(O)C(=O)OCc2c1cc1n(c2=O)Cc2cc3cc(O)ccc3nc2-1 (stereo not drawn) [10-hydroxycamptothecin]
carboxylate/lactone ratio (C/L) free drug ([1]; free in PBS, pH 7.4, 37° C.): 5.4
t1/2 free drug ([1]; free in PBS, pH 7.4, 37° C.): 23.9 min

CC[C@@]1(O)C(=O)OCc2c1cc1n(c2=O)Cc2cc3ccccc3nc2-1 [camptothecin]
lactone ring hydrolysis at raised drug concentration ([1]; 2 mM, lipid to drug ratio 150, DMPC): no evidence of lactone ring hydrolysis was observed
duration of stability when bound to liposomes [1]: at least 48 hours
C/L drug DMPC Lip. ([1]; pH 7.4, 37° C.): ~ 0
t1/2 drug DMPC Lip. ([1]; pH 7.4, 37° C.): > 72 h
C/L drug DMPG Lip. ([1]; pH 7.4, 37° C.): ~ 0
t1/2 drug DMPG Lip. ([1]; pH 7.4, 37° C.): > 72 h
C/L drug DSPC Lip. ([1]; DSPC liposomes, pH 7.4, 37° C.): ~ 3.4
biologically active (lactone) form present after 48 hours [1]: more than 97%
carboxylate/lactone ratio (C/L) free drug ([1]; free in PBS, pH 7.4, 37° C.): 6.8
half-life (t1/2) of free drug in PBS ([1]; free in PBS, pH 7.4, 37° C.): 16.6 min
t1/2 free drug ([1]; free in PBS, pH 7.4, 37° C.): 16.6 min
t1/2 drug DSPC Lip. ([3]; DSPC liposomes, pH 7.4, 37° C.): ~ 100 min.
excited state-lifetime ([4]; PBS): 4.7 ns
average excited state-lifetime ([4]; bound to DMPC liposome membrane): 3.7 ns
excited state-lifetime ([4]; glycerol): 3.8 ns
excited state-lifetime ([4]; methanol): 3.5 ns

CC[C@@]1(O)C(=O)OCc2c1cc1n(c2=O)Cc2cc3c(CN(C)C)c(O)ccc3nc2-1 [topotecan]
lactone hydrolysis when associated with liposomes [1]: some hydrolysis at 1 hour; also recorded: stabilized to a greater degree in DMPG liposomes as compared to DMPC liposomes
C/L drug DMPC Lip. ([1]; pH 7.4, 37° C.): 3.4
t1/2 drug DMPC Lip. ([1]; pH 7.4, 37° C.): 1.25 h
C/L drug DMPG Lip. ([1]; pH 7.4, 37° C.): 0.42
t1/2 drug DMPG Lip. ([1]; pH 7.4, 37° C.): 1.6 h
carboxylate/lactone ratio (C/L) free drug ([1]; free in PBS, pH 7.4, 37° C.): 7.5
t1/2 free drug ([1]; free in PBS, pH 7.4, 37° C.): 21.1 min
